# Measured values reported in patent US5817651A, “3-arylcarbonyl-1-(C-attached-N-heteryl)-1H-indoles” (Sanofi, priority 1997, dated 1998).
# Where two headings read alike, the source gives them in different places.
# Columns and labels:
# [1] = system: adjuvant induced arthritis; test: developing adjuvant arthritis (AA) assay; assay type: in vivo; parameters: key: Non-statistically significant results are recorded as "------ "; conditions: arthritic rats; printed * = p<0.01, ** = p<0.05
# In short: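 Rats given complete Freund's adjuvant into the right hindpaw on day 1. Drug treatment begins while disease is developing but not yet irreversible. Swelling of non-injected (NIP) and injected (RPV) paws read 15–20 days later, expressed as percent inhibition; active at p<0.05.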
# bradykinin = test: anti-bradykinin test (BDK); assay type: in vivo; parameters: key to BDK result (po): The abbreviations IA and Depr. represent, respectively, inactive and depressant; The abbreviations IA and Depr. represent, respectively, inactive and depressant
# From the text: (§1) The test procedures used to determine the analgesic activities of the compounds have been described in detail in the prior art and are as follows: The acetylcholine-induced abdominal constriction test, which is a primary analgesic screening test designed to measure the ability of a test agent to suppress acetylcholine-induced abdominal constriction in mice, described by Collier et al., Brit. J. Pharmacol. Chemotherap. 32, 295 (1968); a modification of the anti-bradykinin test, which is also a primary analgesic screening procedure, described by Berkowitz et al., J. Pharmacol. Exptl. Therap. 177, 500-508 (1971), Blane et al., J. Pharm. Pharmacol. 19, 367-373 (1967), Botha et al., Eur. J. Pharmacol. 6, 312-321 (1969) and Deffenu et al., J. Pharm. Pharmacol. 18, 135 (1966); and the Randall-Selitto analgesic test described by Randall and Selitto, Arch. Int. Pharmacodyn., 111, 409-419 (1957).
# (§2) Data in the developing adjuvant arthritis (AA) and plasma fibronectin (FN) assays are expressed as percent inhibition, i.e. inhibition of non-injected paw inflammation (NIP) and injected paw (RPV) and lowering of plasma fibronectin, the asterisks * and ** indicating statistical significance at the p<0.01 and p<0.05 levels, respectively. Compounds are considered active at p<0.05 level. Non-statistically significant results are recorded as "------ ". In the acetylcholine-induced abdominal constriction test, the test compounds were administered either as suspensions in gum tragacanth (GT) or as aqueous solutions prepared by addition of just sufficient dilute aqueous methanesulfonic acid (MS) or dilute aqueous lactic acid (LA) to dissolve the compound. The compounds are identified by the example number above where their preparations are described. All data in the anti-bradykinin, rat writhing and Randall-Selitto tests were obtained on oral administration.
# paw pressure = test: Randall-Selitto (RS) paw pressure test; assay type: in vivo; conditions: oral administration; read-out: RS minimum effective dose, MED
# From the text: as §1, §2
# [2] = system: acetic acid-induced writhing; test: acetic acid-induced writhing assay in the rat (RW); assay type: in vivo; conditions: for ED50: Rattus norvegicus, po; for ED50 / RW ED50: oral administration; for RW percent inhibition at dose 30: dose level 30
# Method: as §2
# [3] = system: mouse vasa deferentia preparation; test: mouse vas deferens test (MVD); assay type: cell-based; conditions: inhibition of contractions, in vitro, active at 5.0 μM or less
# From the text: It has been shown previously that smoking marijuana reduces intraocular pressure in man [Helper and Frank, Marijuana Smoking and Intraocular Pressure., J. Am. Med. Assoc. 217, 1392 (1971)]. Topical application or systemic injection of delta-9 tetrahydrocannabinol, a principal active ingredient in marijuana, also reduces intraocular pressure [Purnell and Gregg, delta-9 Tetrahydrocannabinol, Euphoria and Intraocular Pressure in Man., Ann. Opth. 7, 921-923 (1975); Green and Pederson, Effect of delta-9 Tetrahydrocannabinol on Aqueous Dynamics and Ciliary Body Permeability in the Rabbit Eye., Exptl. Eye Research 15, 499-507 (1973); Colasanti, Craig and Allara, Intraocular Pressure, Ocular Toxicity and Neurotoxicity after Administration of Cannabinol or Cannibigerol, Exptl. Eye Research 39, 252-259 (1984)]. Similarly, synthetic cannabinoids also reduce intraocular pressure [Green, Symunds, Oliver and Elijah, Intraocular Pressure Following Systemic Administration of Cannabinoids., Curr. Eye Research 2, 247-253 (1982); Tiedeman, Shields, Weber, Crow, Coccetto, Harris and Howes, Opthalmology, 88, 270-277 (1981); Colasanti et al., supra]. Cannabinoid receptor binding sites can be defined as those to which radio-labelled 4-(1,1-dimethylheptyl)-2,3'-dihydroxy-6'alpha-(3-hydroxypropyl)-1', 2', 3', 4', 5', 6'-hexahydrobiphenyl (CP 55940) binds in a specific and saturable manner and the binding sites are heterogeneously distributed in the brain [Devane, Dysarz, Johnson, Melvin and Howlett, Determination and Characterization of a Cannabinoid Receptor in Rat Brain, Molecular Pharm. 34, 605-613 (1988)]. Natural and synthetic cannabinoids and certain of the compounds of the present invention, as more particularly described above, bind to CP 55940 binding sites. […] It is believed that agonist activity at the cannabinoid receptor mediates the anti-glaucoma actions of cannabinoids, and that agonist activity at this receptor correlates with ocular pressure lowering actions in man. Accordingly the cannabinoid receptor agonist activity of the compounds of the present invention indicate their usefulness in reducing ocular pressure.
# [4] = system: acetylcholine-induced abdominal constriction; test: acetylcholine-induced abdominal constriction test (ACH); assay type: in vivo; parameters: key to ACH remark (Depr. = depressant): The abbreviations IA and Depr. represent, respectively, inactive and depressant; The abbreviations IA and Depr. represent, respectively, inactive and depressant; conditions: mice; for ED50 / inhibition in vivo at 100 mg/kg: Mus musculus; for inhibition in vivo at 100 mg/kg: dose level 100, read-out: ACH percent inhibition at dose 100; for ACH remark (Depr. = depressant): remark beside the ED50
# In short: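 Compounds were given as gum tragacanth suspensions or as aqueous solutions dissolved with dilute methanesulfonic or lactic acid.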
# [5] = target: T1, Cannabinoid receptor (CP 55940 binding sites) (Rattus norvegicus, UniProt P20272); test: CP 55940 binding assay
# T1 construct: from tissue
# T1 sequence (P20272 whole entry): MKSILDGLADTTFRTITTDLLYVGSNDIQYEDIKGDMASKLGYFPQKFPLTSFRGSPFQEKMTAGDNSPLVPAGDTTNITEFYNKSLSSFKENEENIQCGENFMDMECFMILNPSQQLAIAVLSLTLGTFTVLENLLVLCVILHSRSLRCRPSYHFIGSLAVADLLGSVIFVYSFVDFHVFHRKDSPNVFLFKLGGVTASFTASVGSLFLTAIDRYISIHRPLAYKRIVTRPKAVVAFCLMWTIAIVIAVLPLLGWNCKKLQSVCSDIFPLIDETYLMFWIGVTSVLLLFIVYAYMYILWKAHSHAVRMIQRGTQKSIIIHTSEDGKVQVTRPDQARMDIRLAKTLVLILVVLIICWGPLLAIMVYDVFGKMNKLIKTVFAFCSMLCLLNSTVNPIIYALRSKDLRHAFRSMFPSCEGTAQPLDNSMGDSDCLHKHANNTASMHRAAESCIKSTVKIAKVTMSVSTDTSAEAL
# [6] = Table 9, Examples, no route marked in the cell, read-out: ACH ED50
# [7] = iv, Table 9, iv, read-out: ACH ED50 (iv)
# [8] = Table 9, Examples, no route marked in the cell
compound,measurement,setting,value
COc1ccc(C(=O)c2c(C)n(CC3CCCN3C)c3ccccc23)cc1 (racemic) [Example 2E],NIP: percent inhibition of non-injected paw inflammation,[1],--
same,RPV: percent inhibition of injected paw,[1],24%
same,BDK result (po),bradykinin; po,IA
same,minimal effective dose,paw pressure,0.03 mg/kg
same,ED50,[2],6 mg/kg
same,IC50,[3]; Mus musculus,63 nM
same,ED50,[4]; [6],27 mg/kg
same,ED50,[4]; [7],6 mg/kg
"COc1ccc(C(=O)c2c(C)n(C3CCCN(C)C3)c3ccccc23)cc1.Cl (racemic) [Example 4A, 1-(1-methyl-3-piperidinyl)-2-methyl-3-(4-methoxybenzoyl)-1H-indole hydrochloride]",NIP: percent inhibition of non-injected paw inflammation,[1],50%
same,RPV: percent inhibition of injected paw,[1],26%
same,RW percent inhibition at dose 17,"[2]; oral, dose level 17",57%
same,IC50,[3]; Mus musculus,650 nM
same,ED50,[4]; [6],33 mg/kg
COc1ccc(C(=O)c2c(C)n(C[C@@H]3CC[C@@H](C)N3C)c3ccccc23)cc1 (relative stereo) [Example 1Y],NIP: percent inhibition of non-injected paw inflammation,[1],67%
same,RPV: percent inhibition of injected paw,[1],48%
same,ED50,[2],3 mg/kg
same,IC50,[3]; Mus musculus,52 nM
same,ED50,[4]; [6],21 mg/kg
same,ED50,[4]; [7],2 mg/kg
same,ED50,"[4]; sc, Table 9, sc, read-out: ACH ED50 (sc)",10 mg/kg
COc1ccc(C(=O)c2cn(C(C)C3CCCN3C)c3ccccc23)cc1 (stereo not shown) [Example 1AB],RW ED50,[2],10 mg/kg
same,IC50,[3],560 nM
same,ACH ED50,[4]; [8],19 mg/kg
Cc1c(C(=O)c2cccc3ccccc23)c2ccccc2n1CC1CCCN(C)C1 (stereo not shown) [Example 1M],minimal effective dose,paw pressure,0.1 mg/kg
same,IC50,[3]; Mus musculus,91 nM
same,ED50,[4]; [7],7 mg/kg
same,inhibition in vivo at 100 mg/kg,[4]; Table 9,25%
COc1ccc(C(=O)c2cn(CC3CCCN(C)C3)c3ccccc23)cc1 (stereo not shown) [Example 1N],RW ED50,[2],28.3 mg/kg
same,IC50,[3]; Mus musculus,94 nM
same,ED50,[4]; [6],91 mg/kg
CSc1ccc(C(=O)c2c(C)n(CC3CCCN3C)c3ccccc23)cc1 (stereo not shown) [Example 1V],ED50,[2],7 mg/kg
same,IC50,[3]; Mus musculus,130 nM
same,ED50,[4]; [6],25 mg/kg
COc1ccc(C(=O)c2c(C)n(C3CCN(C)C3)c3ccccc23)cc1 (stereo not shown) [Example 1X],NIP: percent inhibition of non-injected paw inflammation,[1],--
same,RPV: percent inhibition of injected paw,[1],23%
same,ED50,[2],12 mg/kg
same,IC50,[3]; Mus musculus,150 nM
same,ED50,[4]; [6],20 mg/kg
COc1ccc(C(=O)c2c(C)n(CC3CCN(C)CC3)c3ccccc23)cc1 [Example 2AH],BDK percent inhibition at dose 3,"bradykinin; oral, dose level 3",30%
same,RW percent inhibition at dose 30,[2]; oral,74%
same,ED50,[4]; [6],4 mg/kg
same,ACH ED50,[4]; [8],5 mg/kg
CCc1ccc(C(=O)c2c(C)n(CC3CCCN3C)c3ccccc23)cc1 (stereo not shown) [Example 2AK],ED50,[2],7 mg/kg
same,IC50,[3]; Mus musculus,25 nM
same,ED50,[4]; [6],40 mg/kg
COc1ccc(C(=O)c2c(C)n(CCC3CCCN3C)c3ccccc23)cc1 (stereo not shown) [Example 2B],minimal effective dose,paw pressure,10 mg/kg
same,ED50,[2],25 mg/kg
same,ED50,[4]; [6],32 mg/kg
same,ED50,[4]; [7],8 mg/kg
same,ACH ED50,"[4]; Table 9, Examples, no route marked in the cell, listed as 2B(HCl)",23 mg/kg
COc1ccc(C(=O)c2c(C)n(CC3CCCN(C)C3)c3ccccc23)cc1 (stereo not shown) [Example 2D],NIP: percent inhibition of non-injected paw inflammation,[1],99%
same,RPV: percent inhibition of injected paw,[1],78%
same,ED50,bradykinin; oral administration,2.4 mg/kg
same,ED50,[2],2 mg/kg
same,ED50,[4]; [6],8 mg/kg
COc1ccc(C(=O)c2cn(CCC3CCCCN3C)c3ccccc23)cc1 (stereo not shown) [Example 2F],minimal effective dose,paw pressure,3 mg/kg
same,ED50,[4]; [6],45 mg/kg
same,ED50,[4]; [7],4 mg/kg
COc1ccc(C(=O)c2c(C)n(CC3CCCCN3C)c3ccccc23)cc1 (stereo not shown) [Example 2H],NIP: percent inhibition of non-injected paw inflammation,[1],69%
same,RPV: percent inhibition of injected paw,[1],51%
same,ED50,[2],22 mg/kg
same,IC50,[3]; Mus musculus,134 nM
same,ED50,[4]; [6],33 mg/kg
COc1ccc(C(=O)c2cn(CC3CCCCN3C)c3ccccc23)cc1 (stereo not shown) [Example 2J],NIP: percent inhibition of non-injected paw inflammation,[1],66%
same,RPV: percent inhibition of injected paw,[1],27%
same,ED50,[2],0.5 mg/kg
same,IC50,[3]; Mus musculus,3 nM
same,ED50,[4]; [6],6 mg/kg
same,ACH remark (Depr. = depressant),[4]; Table 9,Depr.
CN1CCCCC1Cn1cc(C(=O)c2cccc3ccccc23)c2ccccc21 (stereo not shown) [Example 2P],IC50,[5],1.4 nM
same,RW percent inhibition at dose 30,[2]; oral,98%
same,IC50,[3]; Mus musculus,0.22 nM
same,ED50,[4]; [6],9 mg/kg
same,ED50,[4]; [7],0.03 mg/kg
same,ACH ED50 (iv),"[4]; Table 9, iv",0.05 mg/kg
same,ACH remark (Depr. = depressant),[4]; Table 9,Depr.
Cc1c(C(=O)c2cccc3ccccc23)c2ccccc2n1CC1CCCCN1C (stereo not shown) [Example 2R],NIP: percent inhibition of non-injected paw inflammation,[1],57%
same,RPV: percent inhibition of injected paw,[1],29%
same,RW percent inhibition at dose 30,[2]; oral,100%
same,IC50,[3]; Mus musculus,1 nM
same,ED50,[4]; [6],22 mg/kg
CN1CCCCC1CCn1cc(C(=O)c2cccc3ccccc23)c2ccccc21 (stereo not shown) [Example 2U],RW percent inhibition at dose 30,[2]; oral,50%
same,IC50,[3]; Mus musculus,107 nM
same,inhibition in vivo at 100 mg/kg,[4]; Table 9,30%
COc1ccc(C(=O)c2cn(CC3CCCN3C)c3ccccc23)cc1 (stereo not shown) [Example 2W],ED50,[2],3 mg/kg
same,IC50,[3]; Mus musculus,8 nM
same,ED50,[4]; [6],11 mg/kg
same,ACH remark (Depr. = depressant),[4]; Table 9,Depr.
